In article PMC8092209, “Structural Basis of Ligand Selectivity by a Bacterial Adhesin Lectin Involved in Multispecies Biofilm Formation” (mBio, 2021):
Where “and” joins values, the source holds several entries; their conditions need not be identical. Equal entries are not always repeated. Where two headings read alike, the source gives them in different places.

Assays:
Assay type in all cases: binding
MpPA14 [1] = biological target: T1, MpPA14 (Marinomonas primoryensis, UniProt A1YIY3); experiment: Dextran-based comparative competition assay (MpPA14)
Text: To gain insight into the binding specificity of MpPA14, we investigated the relative affinity of various monosaccharides for the lectin by a comparative competition assay ([12]). MpPA14 bound to Superdex resin was competitively released into solution by the progressive addition of free sugars. The released protein concentrations measured by absorbance at 280 nm were plotted as a function of free sugar concentration to produce semiquantitative binding curves (Fig. 1A and B). The apparent dissociation constant (Kdapp) calculated from these binding curves was used as a relative measure of affinity for each assayed sugar (Table 1). […] D-Ribose bound […] more strongly than its derivative 2-deoxy-D-ribose (Kdapp of 6.8 mM as opposed to 18 mM; Fig. 1B and Table 1).
The dextran resin competition assay was performed as previously described for MhPA14 ([12]). Briefly, Superdex 200 (S200) resin was washed twice with 50 mM Tris-HCl (pH 9), 150 mM NaCl, and 5 mM CaCl2. One ml of 1 mg/ml MpPA14 with green fluorescent protein (GFP) fused to its N terminus (GFP-MpPA14) or VcPA14 labeled with FITC was suspended with 300 μl of equilibrated Superdex 200 (S200) resin. Following an incubation period with gentle mixing, the S200 resin bound with GFP-MpPA14 was pelleted by centrifugation. The pellet was washed twice with 50 mM Tris-HCl (pH 9), 150 mM NaCl, and 5 mM CaCl2, and the A280 of the supernatant from the second wash was used as the baseline reading. Next, after resuspension in the same buffer, aliquots of 1.67 μmol saccharide were sequentially added to the solution six or seven times, with the A280 of the supernatant being measured after each addition to quantify the release of lectin. The final addition of saccharide was […]. Data from the dextran affinity assay were plotted using GraphPad Prism after subtracting the background. Next, the data were fitted to a nonlinear regression of one-site-specific binding, which follows the model y/Bmax = x/(Kd + x), with Bmax as the maximum specific binding and Kd as the equilibrium binding constant.

MpPA14 [2] = biological target: T1, MpPA14; experiment: Second glycan array (32 polysaccharides, Max Planck Institute for Marine Microbiology); conditions: for Binding of MpPA14 (RFUs): normalized signal intensity, maximal mean set to 100, cutoff of 5
Text: To expand the repertoire of glycans beyond glucans and mannans, we performed a second focused microarray composed of 32 polysaccharides found in microbes such as fungi and bacteria, as well as in macroalgae and plants (Fig. 4B). […] In addition, MpPA14 interacted avidly with fucoidans from macroalgae. […] This conformer is not present in the arabinan polymer composed of 1,5-linked α-L-arabino-furanoses, which are then not free to transition to the pyranose form. Similarly, since the MpPA14 binds galactose via the 1,2-diol (β-anomer) (Fig. 3H), the lectin cannot interact with galactans, as they are polymers of β-1,4-D-galactose (Fig. 4B and Table S5).
The second glycan array was performed at the Max Planck Institute for Marine Microbiology (Bremen, Germany). The array contained duplicates of 32 polysaccharides, including those from macroalgae, bacteria, fungi, and land plants (see details in Table S5 in the supplemental material). N-terminally His-tagged MpPA14 was incubated with the array, and binding of the lectin to the polysaccharides was detected by an anti-His tag secondary antibody conjugated to alkaline phosphatase (Sigma-Aldrich). Microarray probing and quantification were performed as previously described ([45]). Maximal mean (average of the duplicates) signal intensity was set to 100, and the rest of values were normalized accordingly. A cutoff of 5 was applied ([58]).

MpPA14 [3] = biological target: T1, MpPA14; experiment: First glycan array (fungal, bacterial and plant polysaccharide array set 2, Imperial College); conditions: for binding to MpPA14 in first glycan array (in words): GFP-MpPA14; for Binding of MpPA14 (RFUs): GFP-MpPA14 50 μg/ml, Alexa Fluor 647 anti-GFP antibody, mean of duplicates

T1 sequence (A1YIY3 entry or part of it): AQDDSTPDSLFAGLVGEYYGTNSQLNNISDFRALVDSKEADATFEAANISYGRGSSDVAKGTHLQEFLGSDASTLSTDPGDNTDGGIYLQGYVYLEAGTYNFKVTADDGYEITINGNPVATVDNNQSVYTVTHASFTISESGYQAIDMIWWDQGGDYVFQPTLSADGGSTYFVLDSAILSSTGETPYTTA

Compound | Binding of MpPA14 (RFUs) (MpPA14 [2]) | binding to MpPA14 in first glycan array (in words) (MpPA14 [3]) | Binding of MpPA14 (RFUs) (MpPA14 [3]) | other results
OC[C@H]1OC(O)[C@@H](O)[C@@H](O)[C@@H]1O (stereo partly drawn) [Mannose, D-Mannose] | – | – | – | Kd (MpPA14 [1]): 1700 µM
O=CC[C@H](O)[C@H](O)CO [2-Deoxy-ribose, 2-deoxy-D-ribose] | – | – | – | Kd (MpPA14 [1]): 18000 µM
Laminarin (β-(1→3)-D-glucan backbone with 1→6 branches) [Laminarin (Laminaria digitata)] | 41 RFUs | – | – | –
Porphyran | 0 RFUs | – | – | binding to MpPA14 in second glycan array (in words) (MpPA14 [2]): did not bind
N -Mannoprotein (α-1→6-mannan backbone with oligomeric α-(1→2)-, α-(1→3)-, and β-(1→2)-mannan branches | – | moderate lectin-glycan interactions | 17438 RFUs | –
Mannoprotein (mannose rich) | – | negligible or no detectable binding | 0 RFUs | –
Fucoidan [Fucoidan (Sargassum)] | 84 RFUs | – | – | binding to MpPA14 in second glycan array (in words) (MpPA14 [2]): strongest MpPA14-binding fucoidans
Pustulan (β-(1→6)-D-glucan) [Pustulan (Lasallia pustulata)] | 86 RFUs | – | – | binding to MpPA14 in second glycan array (in words) (MpPA14 [2]): significant binding
Fucoidan [Fucoidan (Fucus vesiculosus)] | 29 RFUs | – | – | –
β-glucan Mixed β-(1→3)/β-(1→4)-D-glucan [β-glucan (Oat)] | – | negligible or no detectable binding | 0 RFUs | –
NSG (β-(1→3)-D-glucan backbone, β-(1→3)-D-glucan branches) | – | – | 2319 RFUs | –
Dextran (α-(1→6)-D-glucan backbone) | – | bound most avidly | 41390 RFUs | –
Alginate | 22 RFUs | – | – | –
Glucomannan (β-(1→4)-D-mannose and D-glucose backbone) | 0 RFUs | – | – | –
β-(1→4)-D-xylan | 0 RFUs | – | – | binding to MpPA14 in second glycan array (in words) (MpPA14 [2]): did not bind
COC1OC(CO)C(O)C(O)C1O [Methyl-α-glucose, methyl-α-D-glucose] | – | – | – | Kd (MpPA14 [1]; GFP-MpPA14 bound to Superdex 200 resin released by free sugar, A280, pH 9, 5 mM CaCl2, – = no detectable binding (footnote a), read-out: Kdapp (apparent dissociation constant)): 2100 µM
Grifolan (β-(1→3)-D-glucan backbone, highly branched oligomers) | – | bound most avidly | 39935 RFUs | –
α-(1→5)-L-arabinan | 0 RFUs | – | – | binding to MpPA14 in second glycan array (in words) (MpPA14 [2]): did not bind
Mannan (α-(1→6)-D-mannan backbone, α-(1→2)-,α-(1→3)-mannan branches) [Mannan (Saccharomyces cerevisiae)] | 0 RFUs | weak binding | 3808 RFUs | binding to MpPA14 in second glycan array (in words) (MpPA14 [2]): no detectable interaction
Scleroglucan (β-(1→3)-D-glucan backbone with 1→6 branches) | 65 RFUs | – | – | binding to MpPA14 in second glycan array (in words) (MpPA14 [2]): significant binding
O=C[C@H](O)[C@@H](O)[C@@H](O)[C@H](O)CO [Galactose, D-galactose] | – | – | – | Kd (MpPA14 [1]): 4100 µM
O=CC[C@@H](O)[C@H](O)[C@H](O)CO [2-Deoxy-glucose, 2-deoxy-glucose] | – | – | – | Kd (MpPA14 [1]): 1370 µM and 1400 µM
Pullulan (α-(1→4)(1→6)-D-glucan) | 37 RFUs | bound most avidly | 58106 RFUs | –
Curdlan (β-(1→3)-D-glucan) | – | negligible or no detectable binding | 167 RFUs | –
Arabinoxylan | 0 RFUs | – | – | –
Ulvan | 34 RFUs | – | – | –
Glucurono-XyloMannan (α-(1→3)-Mannan with Xyl, GlcA and Fuc branches) | 0 RFUs | negligible or no detectable binding | 75 RFUs | –
